The source of these data is PMC9848259 (Journal of Enzyme Inhibition and Medicinal Chemistry, 2023).

By IC50 is commonly meant the point on the concentration scale where inhibition reaches its midpoint. A word on the viability: it is a read-out of living cells in per cent, often relative to untreated cells. One may read the LD50 as the dose at which mortality reaches 50%. In general, inhibition refers to the change of the read-out against control, counted positive when it falls.

Data set [1] concerns the target T1, AChE (from the electric eel) (Electrophorus electricus, UniProt O42275).
T1 construct: purchased Sigma Aldrich
Description: biochemical.
Description: (§3) The capacity of the novel cyclopentaquinoline hybrids to inhibit AChE (from the electric eel) and BuChE (from equine serum) were determined by the modified colorimetric Ellman’s method[38]^,[39]. Both enzymes, DTNB – Ellman’s reagent (5,5′-dithiobis-(2-nitrobenzoic acid)), acetyltiocholine iodide (ATCI) were obtained from Sigma Aldrich. AChE and BuChE samples in phosphate buffer (PBS) pH 8.0 were incubated in 96-well plates in the presence of the substrate (ATCI), 76 µl of DTNB and the tested compound at various concentration at room temperature for 10 min (AChE) or eight minutes (BuChE).

The target in data set [2] is T2, BuChE (from equine serum) (Equus caballus, UniProt P81908).
T2 construct: purchased Sigma Aldrich; host or cells: equine serum
Nature of the data set: biochemical.
Description: as §3

The subject of the next data set is SH-SY5Y cells. Nature of the data set: Neuroprotection against rotenone/oligomycin A, co-incubation, MTT test. Type of data set: cell-based, human. Particulars: Rotenone/Oligomycin A 30/10 µM. (In general: Formazan colour is commonly taken as a measure of viable cells.)
Another data set can be described thus: in vitro. It is filed as cell-based. Conditions: human, human hepatic stellate cells (HSCs), read-out: cell viability (hepatotoxicity, MTT). The protocol:
Human hepatic stellate cells (HSCs, Sciencell) were grown in the Stellate Cell Medium (Sciencell) supplemented with 2% Foetal Bovine Serum (Sciencell), 1% Stellate Cell Growth Supplement (Sciencell) and 1% penicillin/streptomycin solution (Sciencell). The cells were cultured in the incubator at 37 °C and 5% CO2. To start the experiment, the cells were seeded at a density of 5 × 10^3 cells/well in 96-well plates and incubated (37 °C, 5% CO2) for 24 h. After incubation, medium was removed from the wells and the cells were exposed to 100 µl of the compound over a range of concentrations (from 0.1 to 10 µM) or 100 µl of culture medium alone (blank control). The cells were then further incubated for 24 h. After this time, the medium was removed, the cells were washed with PBS and 50 µl of MTT solution (0.75 mg/ml) was added to each well. The plates were incubated in the dark at 37 °C for another two hours. The MTT solution was then removed from the wells and 100 µl of DMSO was added. The plates were incubated at room temperature for 10 min and then 5 µl of Sorensen Buffer was added to each well. The plates were swayed and the absorbance at 570 nm was measured with a microplate reader (Synergy H1, BioTek, Winooski, VT, USA). The cell viability was expressed as a percentage of the control values (blank control)[40]^,[46]^,[47].

Data set [3] can be described thus: In vivo acute oral toxicity (OECD 423). Also on record: species or system mice. Particulars: female, Balb/c, mouse, in vivo, OECD 423, read-out: LD50 cut-off. The method, then:
(§1) Compound 3e was administered by the oral route (by gavage) in one of four fixed doses (5, 50, 300, 2000 mg/kg) for a given stage of the study. The results allow to classify the compound according to the Globally Harmonised Classification System for Chemical Substances and Mixtures (GHS). In addition, the LD50 cut-off values was determined. According to the figure from the OECD 423 guidelines, a maximum of six test stages can be performed. Three animals (female mice, Balb/c) took part in each stage, and the number of stages depends on the mortality of the animals, which is the final test parameter. The research was carried out on the basis of the agreement of the Local Ethical Committee for animal testing in Łódź No. 56/115 ŁB/2018.
(§2) After quarantine, handling, weighing and labelling, the compound 3e was given in a dose of 300 mg/kg (300 mg/kg is a dose used in the absence of information on the toxicity of the test substance. If 2–3 animals die after using this dose, compound will be given at a lower dose − 50 mg/kg. Last dose 5 mg/kg is used if after a dose of 50 mg/kg also 2–3 animals die. If no death occurs, or death of one animal, the compound is again administered to the stomach in the same dose 300 mg/kg, and […], a dose of 2000 mg/kg of body weight is used). The presence of a substance-dependent mortality of animals exposed at one stage determines the performance of the next stage of the study. After each dose, animals are observed for 14 days. […].

The subject of a further data set is female mice, Balb/c. Description: In vivo acute oral toxicity (OECD 423). The method, then: as §1, §2
Another data set addresses Aβ(1–42) aggregation (Homo sapiens, UniProt P05067). Nature of the data set: In vitro β-amyloid assay, Thioflavin T fluorescence. It is filed as biochemical. Conditions: ThT.
For the next data set, the target named is T3, Aβ42 (Homo sapiens, UniProt P05067).
T3 construct: expressed in transfected cells; host or cells: Escherichia coli BL21 (DE3), pET vector
Description: In cellulo β-amyloid assay, Th-S fluorescence in E. coli over-expressing Aβ42. Type of data set: cell-based, Escherichia coli. Particulars: read-out: anti-amyloid (inhibition) capacity for Aβ42.

A further data set has as its system SHSY5Y cell. Nature of the data set: Toxicity towards SH-SY5Y cells (MTT). Type of data set: cell-based. Conditions: 0.1–10 µM. The protocol: The SH-SY5Y (human neuroblastoma) (European Collection of Cell Culture) was chosen to determine the neuroprotective properties of the novel compounds. The Ham’s F12:EMEM (1:1) medium was used (Sigma Aldrich), comprising 15% Foetal Bovine Serum (Biowest), 2 mM Glutamine (Sigma Aldrich), 100 units/ml penicillin and […] (Biological Industries) and 1% Non-Essential Amino Acids (Biological Industries).
SH-SY5Y cells were seeded at a density of 5 × 10^3 cells/well in 96-well plates. The cells were cultured for 24 h (37 °C, 5% CO2). After 24 h of incubation, the medium was removed and cells were exposed to 100 µl of the compound at a range of concentrations, or of culture medium alone (blank control). After incubation, the medium was removed, washed with PBS and 50 µl of the MTT solution was added. The plates were then incubated for two hours (37 °C, 5% CO2). The MTT solution was then removed from the wells and 100 µl of DMSO was added. The plates were incubated for 10 min at room temperature and then 5 µl of Sorensen Buffer was added. The plates were swayed and the absorbance measured in a microplate reader (Synergy H1, BioTek, Winooski, VT, USA) at a wavelength of 570 nm. Cell viability was expressed as a percentage of control values (blank control). The experiments were done in triplicate.

In the next data set the test system is DNA. Description: DNA damage. Conditions: any tested concentration.
Setting [4] is: means ± SD of three experiments.

Sequence of Aβ(1–42) aggregation (P05067 672-713 limits assumed): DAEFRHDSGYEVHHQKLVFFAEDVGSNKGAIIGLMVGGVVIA
T2 sequence (P81908 whole entry): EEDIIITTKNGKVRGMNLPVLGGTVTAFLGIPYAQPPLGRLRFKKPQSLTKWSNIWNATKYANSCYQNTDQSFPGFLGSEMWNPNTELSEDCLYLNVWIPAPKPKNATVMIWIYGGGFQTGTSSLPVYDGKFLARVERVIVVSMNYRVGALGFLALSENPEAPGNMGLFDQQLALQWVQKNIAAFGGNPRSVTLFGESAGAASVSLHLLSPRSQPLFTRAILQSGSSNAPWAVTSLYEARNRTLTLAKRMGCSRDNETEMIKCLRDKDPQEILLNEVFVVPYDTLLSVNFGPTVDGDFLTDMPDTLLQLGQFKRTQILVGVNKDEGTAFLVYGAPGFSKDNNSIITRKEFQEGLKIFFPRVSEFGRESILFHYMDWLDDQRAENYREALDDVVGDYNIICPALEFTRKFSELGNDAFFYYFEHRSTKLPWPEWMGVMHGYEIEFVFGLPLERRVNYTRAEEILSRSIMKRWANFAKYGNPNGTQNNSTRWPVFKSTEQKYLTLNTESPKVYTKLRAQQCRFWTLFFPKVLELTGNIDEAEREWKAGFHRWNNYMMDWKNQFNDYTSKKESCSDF
T1 sequence (O42275 24-633): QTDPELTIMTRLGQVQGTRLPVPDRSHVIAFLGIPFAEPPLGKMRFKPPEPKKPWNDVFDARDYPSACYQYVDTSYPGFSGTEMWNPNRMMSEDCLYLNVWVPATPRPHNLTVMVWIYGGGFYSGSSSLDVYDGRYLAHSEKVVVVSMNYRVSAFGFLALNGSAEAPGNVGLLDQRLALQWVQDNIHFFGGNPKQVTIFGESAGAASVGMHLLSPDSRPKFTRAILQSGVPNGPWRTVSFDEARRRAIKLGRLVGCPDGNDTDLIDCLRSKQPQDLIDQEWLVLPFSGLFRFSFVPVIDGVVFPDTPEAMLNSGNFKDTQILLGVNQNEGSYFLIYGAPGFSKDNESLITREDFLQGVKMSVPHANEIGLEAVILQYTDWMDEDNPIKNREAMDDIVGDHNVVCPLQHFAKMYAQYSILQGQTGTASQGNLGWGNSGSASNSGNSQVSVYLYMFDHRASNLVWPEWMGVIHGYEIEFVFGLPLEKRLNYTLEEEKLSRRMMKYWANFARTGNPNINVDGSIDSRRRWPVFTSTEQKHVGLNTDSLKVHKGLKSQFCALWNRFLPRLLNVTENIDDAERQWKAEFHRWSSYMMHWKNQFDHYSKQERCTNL
T3 sequence (P05067 672-713): as the sequence (P05067 672-713 limits assumed) above
Description for Aβ42: Inhibition assay in Escherichia coli cells over-expressing amyloid proteins. […] Escherichia coli competent cells BL21 (DE3) were transformed with the required pET vectors carrying the DNA sequence of Aβ42 peptide. Because of the addition of the initiation codon ATG in front of genes, the over-expressed Aβ42 contains an additional methionine residue at their N terminus. For overnight culture preparation, a colony of BL21 (DE3) bearing the plasmid to be expressed was inoculated in 10 ml of M9 minimal medium containing 50 μg/ml of kanamycin at 37 °C. […] The bacterial culture was then grown at 37 °C, with orbital agitation of 250 rpm. When the cell density reached OD600nm–0.6, 980 μL of the culture were transferred into 1.5 ml conical tubes containing 10 μL of the compound to be tested dissolved in DMSO, and 10 μL of 100 mM isopropyl 1-thio-β-D-galactopyranoside (IPTG). The final concentration of the compound was set to 10 μM. The samples were grown overnight at 37 °C under agitation at 1400 rpm, using a Thermomixer (Eppendorf, Hamburg, Germany). […]
The fluorescence normalisation was carried out considering as 100% the Th-S fluorescence of the bacterial cells expressing Aβ42 in the absence of drug, and 0% the Th-S fluorescence of the bacterial cells non-expressing Aβ42 (in absence of the protein production inductor, IPTG). […]

`O=C(NCCCCCCNc1c2c(nc3ccccc13)CCC2)c1cc(Cl)cc(Cl)c1` [Compound 3e]: the “Selectivity for AChE” value in data set [1] (IC50(BuChE)/IC50(AChE)) amounted to 0.89. The half-maximal inhibitory concentration (IC50) came to 131 ± 16 nM in data set [1] (setting [4]) and 116 ± 6 nM in [2] (setting [4]). Also, the “Selectivity for BuChE” value in [2] (IC50(AChE)/IC50(BuChE)) is reported as 1.13. Further, the “% neuroprotection” value came out at 12.75% in the data set on SH-SY5Y cells (compound 0.0001 µM), 8.67% with SH-SY5Y cells (compound 0.001 µM) and 2.82% in the data set with SH-SY5Y cells (compound 0.01 µM). The viability at 24 h, 0.1 µM in “in vitro” (0.1 µM) worked out at 102%. For the same compound, the viability at 24 h, 1 µM in “in vitro” (1 µM) is 100%. For the same compound, in “in vitro” (10 µM), the viability at 24 h, 10 µM is 97.3%. For the same compound, the median lethal dose (LD50) at 14 days in [3] amounted to 1000 mg/kg. Also, the mortality result with female mice, Balb/c (300 mg/kg, first and second stages, 3 female Balb/c mice per stage) is given as “did not cause any death”; in the data set on female mice, Balb/c (2000 mg/kg, stage one, 3 mice), “no animal died”; in the data set on female mice, Balb/c (2000 mg/kg, stage two, 3 mice), “two died”. In addition, in the data set with female mice, Balb/c (OECD 423), the GHS classification entry is listed as “Category 4 GHS”. Further, at Aβ(1–42) aggregation (5 µM compound), the inhibition at 5 µM was 55.7 ± 4.7%. Besides, the values for the inhibition at 10 µM against Aβ(1–42) aggregation (10 µM compound) and on Aβ42 were 62.7 ± 5.3% and 52.4%, respectively. The compound further yielded an inhibition at 25 µM against Aβ(1–42) aggregation (25 µM compound) of 76.5 ± 3.7%. Besides, the inhibition at 50 µM on Aβ(1–42) aggregation (50 µM compound) is 79.8 ± 2.9%. Moreover, the inhibition at 100 µM against Aβ(1–42) aggregation (100 µM compound) came to 82.6 ± 1.7%. Besides, the “toxicity towards SHSY5Y cell” value with SHSY5Y cell was “non-toxic”. In the data set with DNA, the DNA damage result is “did not induce DNA damage”.
